Experimental findings from the NIST ThermoML archive (doi:10.1016/j.jct.2013.01.032) are described below.

Numbers after ± are expanded uncertainties.

For this series the following is noted: 101.33 kPa, Liquid; for speed of sound: Sing-around technique in a fixed-path interferometer; for mass density: Vibrating tube method.

Broadly, the speed of sound is how fast a sound wave travels through the sample. The mass density is mass per unit of volume. For `CCCCn1cc[n+](C)c1.O=S(=O)([O-])C(F)(F)F` [1-butyl-3-methylimidazolium trifluoromethanesulfonate], the speed of sound reads like this: (293.15 K) 1402.9 ± 1.3 m/s; (308.15 K) 1369.1 ± 1.3 m/s; (323.15 K) 1336.5 ± 1.3 m/s. The mass density was 1303.7 ± 0.6 kg/m3 (293.15 K), 1291.7 ± 0.6 kg/m3 (308.15 K) and 1279.9 ± 0.6 kg/m3 (323.15 K).

Turning to `CCCCO` [butan-1-ol], the speed of sound was 1256.2 ± 0.8 m/s (293.15 K), 1205.9 ± 0.8 m/s (308.15 K) and 1155.7 ± 0.8 m/s (323.15 K). Further, the mass density by setting is: (293.15 K) 809.54 ± 0.14 kg/m3; (308.15 K) 798.01 ± 0.15 kg/m3; (323.15 K) 786.15 ± 0.15 kg/m3.

With `CCC(C)O` (stereo not given) [butan-2-ol], the speed of sound reads like this: (293.15 K) 1230 ± 1 m/s; (308.15 K) 1175.8 ± 0.9 m/s; (323.15 K) 1120.3 ± 0.9 m/s. Besides, the mass density (293.15 K) is reported as 806.56 ± 0.18 kg/m3, the mass density (308.15 K) is 794 ± 0.19 kg/m3 and the mass density (323.15 K) stood at 780.5 ± 0.19 kg/m3.

In the case of `CCCCCO` [pentan-1-ol], the speed of sound runs as follows: (293.15 K) 1292.7 ± 1.3 m/s; (308.15 K) 1242.4 ± 1.3 m/s; (323.15 K) 1192.7 ± 1.3 m/s. The mass density runs as follows: (293.15 K) 814.53 ± 0.31 kg/m3; (308.15 K) 803.52 ± 0.31 kg/m3; (323.15 K) 792.15 ± 0.31 kg/m3.

With `CCCO` [propan-1-ol], the speed of sound by setting is: (293.15 K) 1223.9 ± 0.8 m/s; (308.15 K) 1172.6 ± 0.8 m/s; (323.15 K) 1122 ± 0.8 m/s. Moreover, the mass density stood at 803.92 ± 0.14 kg/m3 (293.15 K), 791.84 ± 0.15 kg/m3 (308.15 K) and 779.33 ± 0.16 kg/m3 (323.15 K).

Regarding `CC(C)O` [propan-2-ol], the speed of sound reads like this: (293.15 K) 1156.7 ± 0.8 m/s; (323.15 K) 1050.8 ± 0.7 m/s. Further, the mass density runs as follows: (293.15 K) 785.1 ± 0.15 kg/m3; (308.15 K) 772.31 ± 0.16 kg/m3; (323.15 K) 758.7 ± 0.17 kg/m3.
